Reference: patent publication US12285434B2, “Therapeutic, preventive, or improvement agent for inflammatory disease and allergic disease” (The University of Tokyo, priority 2018, dated 2025)

Legend:
anaphylaxis model mice = assay: Histamine-induced anaphylaxis: blood pressure and body temperature; type: in vivo, mouse (C57BL/6); settings: 200 mg/kg intravenously 15 minutes before histamine 50 mg/kg
Protocol: Histamine (50 mg/kg) lysed in a physiological saline solution was intravenously administered to C57BL/6 strain mice (male, 8 to 12 weeks old) to prepare anaphylaxis model mice (hereinafter, sometimes referred to as “anaphylaxis group”). […] L-NAME is an NO synthesis inhibitor. As indices of anaphylactic symptoms, a body temperature decrease and a blood pressure decrease were observed.

[1] = system: DSS-induced colitis model mice; assay: DSS-induced colitis: colitis severity (body weight, fecal score, colon length); type: in vivo, mouse (C57BL/6); settings: 1 mg/kg/day intraperitoneally on Days 9, 11 and 13
Source text: (§1) C57BL/6 strain mice (male, 8 to 12 weeks old) were fed with water containing 2% dextran sodium sulfate (manufactured by MP Bio, hereinafter sometimes referred to as “DSS”) for 4 days to prepare colitis model mice (hereinafter, sometimes referred to as “colitis group” in Examples 7 to 10). The mice taken with DSS for 4 days were fed with normal water from Day 5. The DSS intake start date was defined as Day 1 of the test, and the day before the DSS intake start date was defined as Day 0 of the test. In addition, a group in which C57BL/6 strain mice (male, 8 to 12 weeks old) were fed with normal water was defined as a “healthy group” (the same applies to Examples 8 to 10).
In order to evaluate colitis severity, the fecal condition was evaluated and the body weight was measured daily for the colitis model mice and healthy group prepared in the above item (1). The fecal condition was evaluated based on the following five-grade fecal scores. Specifically, the fecal scores were 0: normal; 1: soft but still formed; 2: very soft; 3: diarrhea; and 4: bloody feces. In addition, the colon length was measured as an index of the colitis severity.
(§2) To investigate the role of 5,6-DiHETE in the healing phase, the colitis model mice prepared in Example 7(1) were intraperitoneally injected with 5,6-DiHETE (manufactured by Cayman Chemical) (50 μg/kg/day) or HC-067047 (manufactured by Cayman Chemical) (1 mg/kg/day) on Days 9, 11 and 13 of the test (hereinafter, sometimes referred to as “5,6-DiHETE-administered group” and “HC-067047-administered group,” respectively, in Examples 9 and 10). HC-067047 is known to inhibit an increase of calcium ion concentration in endothelial cells.
The colitis severity was determined according to the index and criteria described in Example 7(2).

[2] = system: DSS-induced colitis model mice; assay: DSS-induced colitis: histologic score and colon edema (wet/dry weight ratio); type: in vivo, mouse (C57BL/6); settings: Day 14; 1 mg/kg/day intraperitoneally on Days 9, 11 and 13
Source text: as §1, §2
Distal colon sections on Day 14 of the test in the healthy group, colitis group, 5,6-DiHETE-administered group and HC-067047-administered group were fixed in 4% paraformaldehyde for 24 hours, embedded in paraffin and cut into 2 μm-thick sections. Hematoxylin staining and eosin staining of these sections were performed according to a conventional method. The histologic score was then decided according to the description of Kruschewski M. et al., Digestive Diseases and Sciences, 46: 2336-2343 (2001) to evaluate the colitis severity.
The wet/dry weight ratio was used as an index of colon edema (Rachmilewitz D. et al., Gastroenterology, 97: 326-337(1989)). Specifically, the distal colon was collected, and the wet weight was measured. The distal colon was then dried at 60 C for 24 hours, and, thereafter, the dry weight was measured.

mouse aortae = assay: Measurement of vascular contraction of aorta (aortic ring specimens); settings: cumulative addition 0.001, 0.01, 0.1 and 1 μM
Protocol: After excision of the thoracic aortae from untreated mice and removal of fat and connective tissue, the aortae were cut into rings to prepare aortic ring specimens. The ring specimens were immersed in a liquid tank filled with a normal nutrient solution (physiological saline solution containing 136.9 mM NaCl, 5.4 mM KCl, 5.5 mM glucose, 23.8 mM NaHCO3, 1.5 mM CaCl2, 1.0 mM MgCl2 and 0.01 mM EDTA), and two stainless hooks were penetrated through the lumens of the ring specimens. One end of each of the stainless hooks was fixed, and the other end thereof was connected to a force-displacement transducer (T7-30-240, manufactured by Orientec Co., Ltd.) connected to a strain amplifier (3134 strain AMPL, manufactured by Yokogawa Test & Measurement Corporation). Then, the following operation (a), (b) or (c) was performed.
(a) Norepinephrine (manufactured by Sigma) was cumulatively added into the liquid tank containing the ring specimens after stabilization of each contraction (every about 30 minutes) so as to attain 0.001 μM, 0.01 μM, 0.1 μM and 1 μM, and this group was designated as a “norepinephrine-administered group” (n=4) (FIG. 3A). 5,6-DiHETE was cumulatively added into the liquid tank containing the ring specimen after stabilization of each contraction (every about 30 minutes) so as to attain 0.001 μM, 0.01 μM, 0.1 μM and 1 μM, and this group was designated as a “5,6-DiHETE-administered group” (n=4) (FIG. 3A).
(b) Norepinephrine was added into the liquid tank containing the ring specimens so as to attain 0.3 μM, and precontraction was induced by administration of norepinephrine (FIG. 3B). Then, after the contraction by the administration of norepinephrine was stabilized, acetylcholine (manufactured by Sigma) was cumulatively added after stabilization of each relaxation reaction (every about 15 minutes) so as to attain 0.03 μM, 0.1 μM, 0.3 μM and 1 μM, and this group was designated as an “acetylcholine-administered group” (FIG. 3B). After the contraction by the administration of norepinephrine was stabilized, 5,6-DiHETE was cumulatively added every about 15 minutes so as to attain 0.001 μM, 0.01 μM, 0.1 μM and 1 μM, and this group was designated as a “5,6-DiHETE-administered group” (n=4) (FIG. 3B).
(c) In order to verify the effect of 5,6-DiHETE on the acetylcholine administration, norepinephrine was added into the liquid tank containing the ring specimens so as to attain 1 μM. After the contraction by the administration of norepinephrine was stabilized, 5,6-DiHETE or a vehicle (solvent alone) was added so as to attain 1 μM. […]
In the above operations (a) to (c), tension (contractile force) generated in the aortic ring specimens was measured isometrically over time using the above force-displacement transducer under a resting tension of 3 mN, and recorded.

HUVECs = assay: Endothelial barrier function: transendothelial electrical resistance (TER); type: cell-based, human
Protocol: (§3) In Examples 4 to 6, human umbilical vein endothelial cells (hereinafter, sometimes referred to as “HUVECs”, manufactured by Lonza) were cultured in EGM-2 (manufactured by Lonza K.K.). These cells (passages 4 to 9) were used for experiments after 4-hour starvation in EBM-2 (manufactured by Lonza K.K.) containing 2% FBS.
The in vitro endothelial barrier function was evaluated by measuring the transendothelial electrical resistance (hereinafter, sometimes referred to as “TER”) of the HUVECs prepared in the above item (1) over time. Specifically, the transendothelial electrical resistance was measured using an xCELLigence Real-Time Cell Analyzer DP system (manufactured by Roche). The system monitors changes in TER across an interdigitated microelectrode at the bottom of tissue culture E-plates (manufactured by Roche). The HUVECs (8,000 cells) were plated on the E-plates and incubated until confluent. Then, the following operation (a) or (b) was performed.
(a) Each reagent was added to plates on which the HUVECs were cultured, so as to give a vehicle, 1 U/mL thrombin, 1 μM forskolin, or 0.1 μM or 0.3 μM 5,6-DiHETE (FIGS. 4A and 4B).
(b) A vehicle or […] was added to plates on which the HUVECs were cultured, so as to attain 10 μM. […] Thirty (30) minutes after the addition, 10 μM histamine was added to each plate 30 minutes after the addition (FIGS. 4C and 4D).
In the above operations (a) and (b), the TER was measured every 60 seconds. For normalization, the cell index value at each time point is shown as a ratio relative to the initial value. The maximum normalized cell index after stimulation was quantified and represented as maximal response. Note that it is known that the disruption of the endothelial barrier function lowers the TER, but that the enhancement of the endothelial barrier function increases the TER.

[3] = system: histamine-induced vascular permeability in mouse ears; assay: Modified Miles assay: histamine-induced vascular hyperpermeability (Evans blue extravasation); type: in vivo, mouse (C57BL/6); settings: 15 minutes, before 400 μg histamine
Protocol: Fifteen (15) minutes after the intracutaneous injection, a vehicle (80% acetone) or histamine (400 μg, manufactured by Molecular Probes) was percutaneously administered to the ventral surface of the ears. To evaluate vascular permeability, Evans blue (50 mg/kg, manufactured by Sigma) was injected intravenously 5 minutes after the administration of histamine. The mice were then euthanized by cervical dislocation 30 minutes after the injection of Evans blue. The ears were dissected, dried at 55° C., and weighed. Extravasated Evans blue present in the ears was extracted in formamide (manufactured by Molecular Probes), and quantified spectrophotometrically (manufactured by PerkinElmer Japan Co., Ltd.) at a wavelength of 610 nm.

NO production in HUVECs = assay: Histamine-induced NO production (nitrite and nitrate); type: cell-based, human; settings: pretreatment 10 μM, 15 minutes; histamine 10 μM
Protocol: as §3
The HUVECs were washed three times with HEPES and incubated in HEPES supplemented with 1 mM L-arginine and 10 μM tetrahydrobiopterin. After equilibration for 30 minutes, the medium was exchanged, and the cells were incubated for additional 30 minutes. […] The conditioned media before and after the stimulation (100 μL each) were collected and centrifuged in each amount of 300 g for 3 minutes. The supernatants were collected, and used to measure nitrite and nitrate, as stable metabolites of NO, by an ENO-20 NOx analyzer (manufactured by Eicom Corporation). The degrees of increases of nitrite and nitrate levels after the stimulation were normalized with cellular protein contents.

## COC(=O)[C@@H](N)CCCNC(=N)N[N+](=O)[O-] [L-NAME]
Anaphylaxis model mice
  blood pressure: 106.6±8.8 mmHg
  body temperature decrease: −0.8±0.2 °C

## Cc1c(C(=O)Nc2cccc(C(F)(F)F)c2)cc(-c2ccccc2)n1CCCN1CCOCC1 [HC-067047, reference compound]
[1]
  recovery from colitis as compared with the colitis group: promoted in recovery from colitis
[2]
  colon edema, wet/dry weight ratio: 5.0±0.1
  histologic score of colitis: 2.8±0.4

## NC[C@H](O)c1ccc(O)c(O)c1 [norepinephrine, reference compound]
Mouse aortae
  contraction of aorta: contracted in a concentration-dependent manner

## thrombin
HUVECs; 1 U/mL, alone
  change of TER: significantly lowered the TER

## CC/C=C\CC(O)/C=C/C=C\CCCCCCCC(=O)O (stereo not drawn) [13-HOTrE]
[3]; pretreatment 0.1 μg/ear
  effect on histamine-induced dye extravasation: did not affect histamine-induced dye extravasation

## CC/C=C\C/C=C\C/C=C\C/C=C\C=C\C(O)C/C=C\CCC(=O)O (stereo not drawn) [7-HDoHE]
[3]; pretreatment 0.1 μg/ear
  effect on histamine-induced dye extravasation: did not affect histamine-induced dye extravasation

## CN(C)CCOC(c1ccccc1)c1ccccc1 [diphenhydramine, reference compound]
HUVECs; 10 μM pretreatment before histamine 10 μM
  histamine-induced reduction of TER: abrogated
NO production in HUVECs
  histamine-induced NO production: abrogated

## [Cl][La]([Cl])[Cl] [LaCl3]
[3]; pretreatment 250 μg/ear
  effect on histamine-induced dye extravasation: significantly inhibited dye extravasation
